# Measured values reported in US12077503B2, “Substituted cyclic amides and their use as herbicides” (FMC CORPORATION, priority 2015, dated 2024).
# Assays:
# Type in all cases: in vivo
# [1] = system: redroot pigweed (Amaranthus retroflexus); experiment: Test G Post-Emergence Protocol; conditions: Amaranthus retroflexus, post-emergence, 312 h; for pest or weed control at 15.625 g/ha: 15.625 g ai/ha, evaluated after 13 days (100=total damage to plant; 0=no damage to plant), read-out: Pigweed, Redroot damage rating; for pest or weed control at 62.5 g/ha: 62.5 g ai/ha, read-out: Pigweed, Redroot damage rating (100=total damage to plant; 0=no damage to plant); for pest or weed control at 62.5 g/ha / pest or weed control at 250 g/ha: evaluated after 13 days; for pest or weed control at 250 g/ha: 250 g ai/ha, read-out: damage to plant, Pigweed, Redroot (100=total damage to plant; 0=no damage to plant)
# Summary of the method: (§1)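 Values are percent visual injury at 13 days after treatment (0 none, 100 total). Treatment was a post-emergence spray at 15.625, 62.5 or 250 g/ha on 8-day-old pot plants kept at 24/16 °C.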
# [2] = system: velvetleaf (Abutilon theophrasti); experiment: Test G Post-Emergence Protocol; conditions: Abutilon theophrasti, post-emergence, 312 h; for pest or weed control at 15.625 g/ha: 15.625 g ai/ha, evaluated after 13 days (100=total damage to plant; 0=no damage to plant), read-out: Velvetleaf damage rating; for pest or weed control at 62.5 g/ha: 62.5 g ai/ha, read-out: Velvetleaf damage rating (100=total damage to plant; 0=no damage to plant); for pest or weed control at 62.5 g/ha / pest or weed control at 250 g/ha: evaluated after 13 days; for pest or weed control at 250 g/ha: 250 g ai/ha, read-out: damage to plant, Velvetleaf (100=total damage to plant; 0=no damage to plant)
# Summary of the method: as §1
# corn (Zea mays) [3] = experiment: Test G Post-Emergence Protocol; conditions: Zea mays, post-emergence, 312 h; for plant injury at 15.625 g/ha: 15.625 g ai/ha, evaluated after 13 days (100=total damage to plant; 0=no damage to plant), read-out: Corn damage rating; for plant injury at 62.5 g/ha: 62.5 g ai/ha, read-out: Corn damage rating (100=total damage to plant; 0=no damage to plant); for plant injury at 62.5 g/ha / plant injury at 250 g/ha: evaluated after 13 days; for plant injury at 250 g/ha: 250 g ai/ha, read-out: damage to plant, Corn (100=total damage to plant; 0=no damage to plant)
# Summary of the method: as §1
# [4] = system: giant foxtail (Setaria faberi); experiment: Test G Post-Emergence Protocol; conditions: Setaria faberi, post-emergence, 312 h; for pest or weed control at 15.625 g/ha: 15.625 g ai/ha, evaluated after 13 days (100=total damage to plant; 0=no damage to plant), read-out: Foxtail, Giant damage rating; for pest or weed control at 62.5 g/ha: 62.5 g ai/ha, read-out: Foxtail, Giant damage rating (100=total damage to plant; 0=no damage to plant); for pest or weed control at 62.5 g/ha / pest or weed control at 250 g/ha: evaluated after 13 days; for pest or weed control at 250 g/ha: 250 g ai/ha, read-out: damage to plant, Foxtail, Giant (100=total damage to plant; 0=no damage to plant)
# Summary of the method: as §1
# [5] = system: barnyardgrass (Echinochloa crus-galli); experiment: Test G Post-Emergence Protocol; conditions: Echinochloa crus-galli, post-emergence, 312 h; for pest or weed control at 15.625 g/ha: 15.625 g ai/ha, evaluated after 13 days (100=total damage to plant; 0=no damage to plant), read-out: Barnyardgrass damage rating; for pest or weed control at 62.5 g/ha: 62.5 g ai/ha, read-out: Barnyardgrass damage rating (100=total damage to plant; 0=no damage to plant); for pest or weed control at 62.5 g/ha / pest or weed control at 250 g/ha: evaluated after 13 days; for pest or weed control at 250 g/ha: 250 g ai/ha, read-out: damage to plant, Barnyardgrass (100=total damage to plant; 0=no damage to plant)
# Summary of the method: as §1
# [6] = system: ivy-leaved morning glory (Ipomoea hederacea); experiment: Test G Post-Emergence Protocol; conditions: Ipomoea, post-emergence, 312 h; for pest or weed control at 15.625 g/ha: 15.625 g ai/ha, evaluated after 13 days (100=total damage to plant; 0=no damage to plant), read-out: Morningglory, Ivy-leaved damage rating; for pest or weed control at 62.5 g/ha: 62.5 g ai/ha, read-out: Morningglory, Ivy-leaved damage rating (100=total damage to plant; 0=no damage to plant); for pest or weed control at 62.5 g/ha / pest or weed control at 250 g/ha: evaluated after 13 days; for pest or weed control at 250 g/ha: 250 g ai/ha, read-out: damage to plant, Morningglory, Ivy-leaved (100=total damage to plant; 0=no damage to plant)
# Summary of the method: as §1
# [7] = system: redroot pigweed (Amaranthus retroflexus); experiment: Test G Pre-Emergence Protocol; conditions: Amaranthus retroflexus, pre-emergence, 312 h, evaluated after 13 days; for pest or weed control at 15.625 g/ha: 15.625 g ai/ha; for pest or weed control at 15.625 g/ha / pest or weed control at 250 g/ha: read-out: Pigweed, Redroot damage rating (100=total damage to plant; 0=no damage to plant); for pest or weed control at 62.5 g/ha: 62.5 g ai/ha, 100=total damage to plant, 0=no damage to plant, read-out: plant damage rating, Pigweed, Redroot; for pest or weed control at 250 g/ha: 250 g ai/ha
# Summary of the method: (§2)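 Herbicidal effect was rated 13 days post-application on a scale where 100 equals total damage. Spraying took place the day after sowing, using 15.625, 62.5 or 250 g/ha of compound in a 50:50 acetone/water solution with 0.5% Tween 20.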
# [8] = system: velvetleaf (Abutilon theophrasti); experiment: Test G Pre-Emergence Protocol; conditions: Abutilon theophrasti, pre-emergence, 312 h, evaluated after 13 days; for pest or weed control at 15.625 g/ha: 15.625 g ai/ha; for pest or weed control at 15.625 g/ha / pest or weed control at 250 g/ha: read-out: Velvetleaf damage rating (100=total damage to plant; 0=no damage to plant); for pest or weed control at 62.5 g/ha: 62.5 g ai/ha, 100=total damage to plant, 0=no damage to plant, read-out: plant damage rating, Velvetleaf; for pest or weed control at 250 g/ha: 250 g ai/ha
# Summary of the method: as §2
# corn (Zea mays) [9] = experiment: Test G Pre-Emergence Protocol; conditions: Zea mays, pre-emergence, 312 h, evaluated after 13 days; for plant injury at 15.625 g/ha: 15.625 g ai/ha; for plant injury at 15.625 g/ha / plant injury at 250 g/ha: read-out: Corn damage rating (100=total damage to plant; 0=no damage to plant); for plant injury at 62.5 g/ha: 62.5 g ai/ha, 100=total damage to plant, 0=no damage to plant, read-out: plant damage rating, Corn; for plant injury at 250 g/ha: 250 g ai/ha
# Summary of the method: as §2
# [10] = system: giant foxtail (Setaria faberi); experiment: Test G Pre-Emergence Protocol; conditions: Setaria faberi, pre-emergence, 312 h, evaluated after 13 days; for pest or weed control at 15.625 g/ha: 15.625 g ai/ha; for pest or weed control at 15.625 g/ha / pest or weed control at 250 g/ha: read-out: Foxtail, Giant damage rating (100=total damage to plant; 0=no damage to plant); for pest or weed control at 62.5 g/ha: 62.5 g ai/ha, 100=total damage to plant, 0=no damage to plant, read-out: plant damage rating, Foxtail, Giant; for pest or weed control at 250 g/ha: 250 g ai/ha
# Summary of the method: as §2
# [11] = system: barnyardgrass (Echinochloa crus-galli); experiment: Test G Pre-Emergence Protocol; conditions: Echinochloa crus-galli, pre-emergence, 312 h, evaluated after 13 days; for pest or weed control at 15.625 g/ha: 15.625 g ai/ha, read-out: Barnyard grass damage rating (100=total damage to plant; 0=no damage to plant); for pest or weed control at 62.5 g/ha: 62.5 g ai/ha, 100=total damage to plant, 0=no damage to plant, read-out: plant damage rating, Barnyardgrass; for pest or weed control at 250 g/ha: 250 g ai/ha, read-out: Barnyardgrass damage rating (100=total damage to plant; 0=no damage to plant)
# Summary of the method: as §2
# [12] = system: ivy-leaved morning glory (Ipomoea hederacea); experiment: Test G Pre-Emergence Protocol; conditions: Ipomoea, pre-emergence, 312 h, evaluated after 13 days; for pest or weed control at 15.625 g/ha: 15.625 g ai/ha, read-out: Morning-glory, Ivy-leaved damage rating (100=total damage to plant; 0=no damage to plant); for pest or weed control at 62.5 g/ha: 62.5 g ai/ha, 100=total damage to plant, 0=no damage to plant, read-out: plant damage rating, Morningglory, Ivy-leaved; for pest or weed control at 250 g/ha: 250 g ai/ha, read-out: Morningglory, Ivy-leaved damage rating (100=total damage to plant; 0=no damage to plant)
# Summary of the method: as §2
Structure (SMILES),pest or weed control at 15.625 g/ha [1],pest or weed control at 62.5 g/ha [1],pest or weed control at 250 g/ha [1],pest or weed control at 15.625 g/ha [2],pest or weed control at 62.5 g/ha [2],pest or weed control at 250 g/ha [2],plant injury at 15.625 g/ha (corn (Zea mays) [3]),plant injury at 62.5 g/ha (corn (Zea mays) [3]),plant injury at 250 g/ha (corn (Zea mays) [3]),pest or weed control at 15.625 g/ha [4],pest or weed control at 62.5 g/ha [4],pest or weed control at 250 g/ha [4],pest or weed control at 15.625 g/ha [5],pest or weed control at 62.5 g/ha [5],pest or weed control at 250 g/ha [5],pest or weed control at 15.625 g/ha [6],pest or weed control at 62.5 g/ha [6],pest or weed control at 250 g/ha [6],pest or weed control at 15.625 g/ha [7],pest or weed control at 62.5 g/ha [7],further results
CN1C[C@@H](c2ccc(C(F)(F)F)cc2)[C@H](C(=O)Nc2ccccc2C#N)C1=O (racemic) [Compound 1599],0%,50%,50%,0%,30%,40%,0%,0%,40%,60%,80%,80%,10%,70%,70%,50%,60%,50%,0%,40%,pest or weed control at 250 g/ha [7]: 70%; pest or weed control at 15.625 g/ha [8]: 0%; pest or weed control at 62.5 g/ha [8]: 30%; pest or weed control at 250 g/ha [8]: 20%; plant injury at 15.625 g/ha (corn (Zea mays) [9]): 0%; plant injury at 62.5 g/ha (corn (Zea mays) [9]): 10%; plant injury at 250 g/ha (corn (Zea mays) [9]): 40%; pest or weed control at 15.625 g/ha [10]: 20%; pest or weed control at 62.5 g/ha [10]: 60%; pest or weed control at 250 g/ha [10]: 80%; pest or weed control at 15.625 g/ha [11]: 0%; pest or weed control at 62.5 g/ha [11]: 70%; pest or weed control at 250 g/ha [11]: 70%; pest or weed control at 15.625 g/ha [12]: 10%; pest or weed control at 62.5 g/ha [12]: 10%; pest or weed control at 250 g/ha [12]: 10%
CN1C[C@@H](c2ccc(C(F)(F)F)cc2)[C@H](C(=O)Nc2ccc(Cl)cc2F)C1=O (racemic) [Compound 1602],0%,50%,70%,0%,20%,40%,0%,0%,20%,0%,60%,80%,0%,20%,40%,10%,50%,50%,0%,30%,pest or weed control at 250 g/ha [7]: 40%; pest or weed control at 15.625 g/ha [8]: 0%; pest or weed control at 62.5 g/ha [8]: 0%; pest or weed control at 250 g/ha [8]: 10%; plant injury at 15.625 g/ha (corn (Zea mays) [9]): 0%; plant injury at 62.5 g/ha (corn (Zea mays) [9]): 0%; plant injury at 250 g/ha (corn (Zea mays) [9]): 0%; pest or weed control at 15.625 g/ha [10]: 0%; pest or weed control at 62.5 g/ha [10]: 30%; pest or weed control at 250 g/ha [10]: 70%; pest or weed control at 15.625 g/ha [11]: 0%; pest or weed control at 62.5 g/ha [11]: 0%; pest or weed control at 250 g/ha [11]: 40%; pest or weed control at 15.625 g/ha [12]: 0%; pest or weed control at 62.5 g/ha [12]: 0%; pest or weed control at 250 g/ha [12]: 0%
CSc1nnc(NC(=O)[C@@H]2C(=O)N(C)C[C@H]2c2ccc(C(F)(F)F)cc2)[nH]1 (racemic) [Compound 1603],0%,0%,0%,0%,0%,0%,0%,0%,0%,0%,0%,0%,0%,0%,0%,0%,0%,0%,0%,0%,pest or weed control at 250 g/ha [7]: 0%; pest or weed control at 15.625 g/ha [8]: 0%; pest or weed control at 62.5 g/ha [8]: 0%; pest or weed control at 250 g/ha [8]: 0%; plant injury at 15.625 g/ha (corn (Zea mays) [9]): 0%; plant injury at 62.5 g/ha (corn (Zea mays) [9]): 0%; plant injury at 250 g/ha (corn (Zea mays) [9]): 0%; pest or weed control at 15.625 g/ha [10]: 0%; pest or weed control at 62.5 g/ha [10]: 0%; pest or weed control at 250 g/ha [10]: 0%; pest or weed control at 15.625 g/ha [11]: 0%; pest or weed control at 62.5 g/ha [11]: 0%; pest or weed control at 250 g/ha [11]: 0%; pest or weed control at 15.625 g/ha [12]: 0%; pest or weed control at 62.5 g/ha [12]: 0%; pest or weed control at 250 g/ha [12]: 0%
